Data on one compound can be found in patent US20170190726A9, “PRODRUG FOR RELEASE OF CISPLATIN AND CYCLOOXYGENASE INHIBITOR” (priority 2013, published 2017).

Structures are written as SMILES.

In the experiment the target is T1, ovine COX-1 (Ovis aries, UniProt P05979).
T1 construct: purchased Cayman Chemicals 560101
T1 sequence (P05979 25-600): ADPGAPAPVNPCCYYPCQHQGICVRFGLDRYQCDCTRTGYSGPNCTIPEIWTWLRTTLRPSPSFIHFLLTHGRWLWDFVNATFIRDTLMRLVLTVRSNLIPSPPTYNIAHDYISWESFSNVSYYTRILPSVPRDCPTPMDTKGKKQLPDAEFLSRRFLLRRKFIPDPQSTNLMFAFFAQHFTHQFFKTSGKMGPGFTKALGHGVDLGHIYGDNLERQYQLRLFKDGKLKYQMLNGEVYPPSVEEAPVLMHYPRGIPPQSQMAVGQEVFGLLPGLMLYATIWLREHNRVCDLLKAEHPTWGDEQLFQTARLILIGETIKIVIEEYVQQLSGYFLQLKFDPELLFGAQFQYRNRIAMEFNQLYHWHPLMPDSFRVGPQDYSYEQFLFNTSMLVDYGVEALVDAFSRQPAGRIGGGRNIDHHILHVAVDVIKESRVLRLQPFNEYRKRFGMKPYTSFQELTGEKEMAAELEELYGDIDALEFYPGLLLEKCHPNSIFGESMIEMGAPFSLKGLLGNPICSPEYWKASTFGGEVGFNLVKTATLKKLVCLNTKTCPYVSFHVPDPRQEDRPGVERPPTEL
In words: In vitro COX inhibition assay (EIA), COX-1. The format is biochemical. To be noted: ovine COX-1, EIA, 0.25-1.5 mM, aspirin as positive control. On the procedure:
An enzyme immunoassay (EIA) kit from Cayman Chemicals (catalogue number 560101) was used to assess the ability of Platin-A to inhibit ovine COX-1 and COX-2. COX inhibition assay was performed as per the manufacturer protocol. All stock solutions were prepared following manufactures instruction. This inhibition assay was carried out using a two-step process: COX reaction and EIA. COX reaction involved preparation of following samples.
(i) Background samples: COX-1 and COX-2 were inactivated by transferring 20 μL of each enzyme to an eppendorf tube and placing the tube in boiling water for 3 min. […] (ii) COX-1 or COX-2 100% initial activity samples: 950 μL of reaction buffer, 10 μL of heme, 10 μL of COX-1 or COX-2, and 20 μL of reaction buffer were added to each test tube. (iii) COX-1 or COX-2 inhibitor samples: 950 μL of reaction buffer, 10 μL of heme, 10 μL of COX-1 or COX-2 and 20 μL of COX-1 and COX-2 inhibitors under investigation, aspirin and Platin-A of different concentrations (0.25, 0.5, 0.75, 1, and 1.5 mM for COX-1; 0.75, 1, 1.25, 1.5, and 2 mM for COX-2) were added to each test tube.
All the samples were incubated for 5 min in water bath at 37° C. […]
For EIA, 100 μL of EIA buffer was added to non-specific binding well and 50 μL of EIA buffer to maximum binding wells. […] Absorbance was recorded at a wavelength of 410 nm using a plate reader.

For `CC(=O)Oc1ccccc1C(=O)[O][Pt]([NH2])([NH2])([OH])([Cl])[Cl]` [Platin-A], the COX-1 inhibition result was “very similar inhibition of both COX-1 and COX-2 as shown by aspirin”.
